Here are results for twelve molecules from US20250177363A1, “SUBSTITUTED IMIDAZOPYRIDINYL COMPOUNDS USEFUL AS INHIBITORS OF TLR9” (Bristol-Myers Squibb Company, priority 2022, published 2025).

Structures are written as SMILES.

What all share (format): cell-based
In one assay the target is T1, human TLR9 (Homo sapiens, UniProt Q9NR96).
T1 construct: host or cells: HEK-Blue cells
T1 sequence (Q9NR96 26-1032): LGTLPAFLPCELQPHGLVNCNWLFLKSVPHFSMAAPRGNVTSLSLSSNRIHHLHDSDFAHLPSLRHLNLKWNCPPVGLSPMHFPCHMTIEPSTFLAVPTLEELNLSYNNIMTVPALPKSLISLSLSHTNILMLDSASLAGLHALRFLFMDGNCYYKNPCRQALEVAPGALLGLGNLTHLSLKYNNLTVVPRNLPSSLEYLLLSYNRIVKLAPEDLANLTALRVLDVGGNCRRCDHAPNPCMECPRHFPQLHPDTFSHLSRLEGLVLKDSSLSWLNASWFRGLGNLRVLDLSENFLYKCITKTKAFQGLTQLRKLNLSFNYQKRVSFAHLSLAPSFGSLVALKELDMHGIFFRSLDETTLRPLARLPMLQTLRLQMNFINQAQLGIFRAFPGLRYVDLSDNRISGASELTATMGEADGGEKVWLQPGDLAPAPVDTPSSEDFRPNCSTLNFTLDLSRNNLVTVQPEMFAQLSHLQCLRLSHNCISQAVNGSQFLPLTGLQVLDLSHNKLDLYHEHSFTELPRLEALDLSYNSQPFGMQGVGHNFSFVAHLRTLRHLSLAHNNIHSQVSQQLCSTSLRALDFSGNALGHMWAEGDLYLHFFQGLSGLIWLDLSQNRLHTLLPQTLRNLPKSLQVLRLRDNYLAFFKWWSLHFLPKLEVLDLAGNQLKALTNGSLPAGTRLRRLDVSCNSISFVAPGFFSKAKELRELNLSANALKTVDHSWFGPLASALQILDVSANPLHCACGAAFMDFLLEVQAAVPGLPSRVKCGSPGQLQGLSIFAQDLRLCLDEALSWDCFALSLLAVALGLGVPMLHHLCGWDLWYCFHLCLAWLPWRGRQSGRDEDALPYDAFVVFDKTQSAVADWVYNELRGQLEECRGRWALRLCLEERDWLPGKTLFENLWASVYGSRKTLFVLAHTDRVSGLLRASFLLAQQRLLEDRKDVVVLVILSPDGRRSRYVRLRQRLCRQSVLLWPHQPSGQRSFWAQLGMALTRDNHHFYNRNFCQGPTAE
The assay is described as follows: TLR9 inhibition reporter assay (HEK-Blue, SEAP). To be noted: HEK-Blue cells overexpressing human TLR9, ligand ODN2006 200 nM, 22 hour incubation. The method in brief:
(§1)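 HEK-Blue cells expressing human TLR7, TLR8 or TLR9 with NF-κB/AP-1-driven SEAP reporter; compounds 0.85 nM–50 μM, pre-treated 60 min. Stimulation: gardiquimod 2.5 μM (TLR7), R848 14.25 μM (TLR8), ODN2006 200 nM (TLR9); SEAP read after 22 h at 37 °C. Percent inhibition normalized between agonist+DMSO and known-inhibitor wells.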

Another assay has as its target T2, human TLR8 (Homo sapiens, UniProt Q9NR97).
T2 construct: host or cells: HEK-Blue cells
T2 sequence (Q9NR97 27-1041): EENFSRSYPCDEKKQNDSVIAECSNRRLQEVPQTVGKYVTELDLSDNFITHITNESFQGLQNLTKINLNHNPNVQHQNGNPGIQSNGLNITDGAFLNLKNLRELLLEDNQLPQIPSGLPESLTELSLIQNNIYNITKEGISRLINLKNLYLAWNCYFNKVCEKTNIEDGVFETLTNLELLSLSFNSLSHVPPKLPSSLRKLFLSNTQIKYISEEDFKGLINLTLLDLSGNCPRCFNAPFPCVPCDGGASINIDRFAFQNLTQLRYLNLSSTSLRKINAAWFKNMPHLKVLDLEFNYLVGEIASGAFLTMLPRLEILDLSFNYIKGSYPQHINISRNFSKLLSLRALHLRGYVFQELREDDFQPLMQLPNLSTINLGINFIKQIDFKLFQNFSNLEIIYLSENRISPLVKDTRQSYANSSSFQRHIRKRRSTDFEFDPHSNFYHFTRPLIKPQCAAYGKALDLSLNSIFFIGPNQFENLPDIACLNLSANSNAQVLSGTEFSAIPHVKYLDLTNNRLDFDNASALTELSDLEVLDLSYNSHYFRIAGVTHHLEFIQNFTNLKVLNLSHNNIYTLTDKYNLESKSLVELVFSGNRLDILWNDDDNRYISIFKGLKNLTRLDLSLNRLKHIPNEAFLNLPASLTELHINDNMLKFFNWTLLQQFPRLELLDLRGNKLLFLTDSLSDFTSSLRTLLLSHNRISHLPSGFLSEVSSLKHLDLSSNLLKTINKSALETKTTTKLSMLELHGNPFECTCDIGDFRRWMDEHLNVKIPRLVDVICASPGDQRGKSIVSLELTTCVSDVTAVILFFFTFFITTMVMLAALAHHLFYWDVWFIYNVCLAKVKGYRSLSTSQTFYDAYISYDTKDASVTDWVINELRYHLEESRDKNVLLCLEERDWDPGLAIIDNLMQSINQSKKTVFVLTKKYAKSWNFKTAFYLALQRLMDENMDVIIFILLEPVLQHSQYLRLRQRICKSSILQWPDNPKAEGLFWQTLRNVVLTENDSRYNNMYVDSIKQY
The assay is described as follows: TLR8 inhibition reporter assay (HEK-Blue, SEAP). Particulars: HEK-Blue cells overexpressing human TLR8, ligand R848 14.25 μM, 22 hour incubation. The method in brief:
as §1
(In general: In a reporter assay the amount or activity of a reporter protein is the signal.)

The target of a further assay is T3, human TLR7 (Homo sapiens, UniProt Q9NYK1).
T3 construct: host or cells: HEK-Blue cells
T3 sequence (Q9NYK1 27-1049): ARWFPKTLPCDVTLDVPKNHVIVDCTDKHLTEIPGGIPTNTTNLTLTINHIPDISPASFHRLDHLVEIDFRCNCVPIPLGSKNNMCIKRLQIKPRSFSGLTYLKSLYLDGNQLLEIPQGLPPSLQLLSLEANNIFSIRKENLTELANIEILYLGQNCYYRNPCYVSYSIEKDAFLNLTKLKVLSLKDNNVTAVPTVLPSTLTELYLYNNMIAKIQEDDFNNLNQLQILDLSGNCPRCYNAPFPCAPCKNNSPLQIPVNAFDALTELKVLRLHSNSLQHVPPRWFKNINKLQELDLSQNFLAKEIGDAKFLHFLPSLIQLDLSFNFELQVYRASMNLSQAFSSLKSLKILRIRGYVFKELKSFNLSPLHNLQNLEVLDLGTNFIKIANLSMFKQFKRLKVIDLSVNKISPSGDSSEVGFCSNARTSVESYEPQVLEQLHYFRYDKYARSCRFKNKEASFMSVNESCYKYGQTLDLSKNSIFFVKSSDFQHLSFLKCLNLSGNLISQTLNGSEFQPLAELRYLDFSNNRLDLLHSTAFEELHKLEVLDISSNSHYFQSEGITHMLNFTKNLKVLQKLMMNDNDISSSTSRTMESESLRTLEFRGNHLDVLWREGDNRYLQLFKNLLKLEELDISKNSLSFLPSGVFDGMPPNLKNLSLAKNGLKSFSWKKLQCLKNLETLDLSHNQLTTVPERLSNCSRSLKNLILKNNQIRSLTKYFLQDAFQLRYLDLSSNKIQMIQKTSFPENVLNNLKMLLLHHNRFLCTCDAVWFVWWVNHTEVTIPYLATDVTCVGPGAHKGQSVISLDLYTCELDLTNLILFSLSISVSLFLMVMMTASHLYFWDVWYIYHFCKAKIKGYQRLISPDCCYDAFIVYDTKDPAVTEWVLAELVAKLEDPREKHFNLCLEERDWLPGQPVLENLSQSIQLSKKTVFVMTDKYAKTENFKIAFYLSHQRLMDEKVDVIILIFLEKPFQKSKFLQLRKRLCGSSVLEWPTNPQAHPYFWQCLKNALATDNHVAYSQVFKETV
Kind of assay: TLR7 inhibition reporter assay (HEK-Blue, SEAP). Particulars: HEK-Blue cells overexpressing human TLR7, ligand gardiquimod 2.5 μM, 22 hour incubation. The method in brief:
as §1

Turning to `COc1ccc(-c2nc3c(C)cc(-c4ccc(N5CC6(CN(CC(C)C)C6)C5)cc4)nc3n2C)cc1OC` [Example 64, 2-(3,4-dimethoxyphenyl)-5-(4-(6-isobutyl-2,6-diazaspiro[3.3]heptan-2-yl)phenyl)-3,7-dimethyl-3H-imidazo[4,5-b]pyridine], the IC50 on human TLR9 was found to be 1400 nM; at human TLR8, 9800 nM; against human TLR7, 6300 nM.

Consider `Cc1cc(-c2ccc(C3CCN(C)CC3)cc2)nc2c1nc(-c1ccc(S(C)(=O)=O)cc1)n2C1CC1` [Example 9, 3-cyclopropyl-7-methyl-5-(4-(1-methylpiperidin-4-yl)phenyl)-2-(4-(methylsulfonyl)phenyl)-3H-imidazo[4,5-b]pyridine], for which the IC50 was 1700 nM on human TLR9, greater than 50000 nM at human TLR8 and 13000 nM on human TLR7.

Take `Cc1cc(-c2ccc(N3CCN(CC(C)C)CC3)cc2)nc2c1nc(-c1ccc(S(C)(=O)=O)cc1)n2C` [Example 8, 5-(4-(4-isobutylpiperazin-1-yl)phenyl)-3,7-dimethyl-2-(4-(methylsulfonyl)phenyl)-3H-imidazo[4,5-b]pyridine]: the IC50 is 1700 nM at human TLR9, greater than 50000 nM against human TLR8 and greater than 50000 nM on human TLR7.

Take `COc1ccc(-c2nc3c(C)cc(-c4ccc(N5CCC6(CC5)CN(C(C)C)C6)cc4)nc3n2C)cc1OC` [Example 58, 2-(3,4-dimethoxyphenyl)-5-(4-(2-isopropyl-2,7-diazaspiro[3.5]nonan-7-yl)phenyl)-3,7-dimethyl-3H-imidazo[4,5-b]pyridine]: the IC50 worked out at 540 nM on human TLR9, 15000 nM against human TLR8 and 1600 nM against human TLR7.

Take `Cn1c(-c2ccc(S(C)(=O)=O)cc2)nc2ccc(-c3ccc(N4CCC5(CC4)CN(CC(C)(C)O)C5)cc3)nc21` [Example 63, 2-methyl-1-(7-(4-(3-methyl-2-(4-(methylsulfonyl)phenyl)-3H-imidazo[4,5-b]pyridin-5-yl)phenyl)-2,7-diazaspiro[3.5]nonan-2-yl)propan-2-ol]: the figures for the IC50 against human TLR9, at human TLR8 and at human TLR7 were 550 nM, 44000 nM and 4200 nM, respectively.

For the molecule `CC(C)N1CCN(c2ccc(-c3ccc4nc(-c5ccc(S(C)(=O)=O)cc5)n(C5CC5)c4n3)cc2)CC1` [Example 54, 3-cyclopropyl-5-(4-(4-isopropylpiperazin-1-yl)phenyl)-2-(4-(methylsulfonyl)phenyl)-3H-imidazo[4,5-b]pyridine], the results for the IC50 at human TLR9, against human TLR8 and against human TLR7 were 760 nM, greater than 50000 nM and greater than 50000 nM, respectively.

For the molecule `CC(C)N1CCN(c2ccc(-c3cnc4nc(-c5ccc(S(C)(=O)=O)cc5)n(C5CC5)c4c3)cc2)CC1` [Example 51, 1-cyclopropyl-6-(4-(4-isopropylpiperazin-1-yl)phenyl)-2-(4-(methylsulfonyl)phenyl)-1H-imidazo[4,5-b]pyridine], the concentration for half-maximal inhibition (IC50) on human TLR9 is 340 nM; on human TLR8, 4200 nM; against human TLR7, 2700 nM.

As to `CC(C)CN1CC2(C1)CN(c1ccc(-c3ccc4nc(-c5ccc(S(C)(=O)=O)cc5)n(C)c4n3)cc1)C2` [Example 66, 5-(4-(6-isobutyl-2,6-diazaspiro[3.3]heptan-2-yl)phenyl)-3-methyl-2-(4-(methylsulfonyl)phenyl)-3H-imidazo[4,5-b]pyridine], the figures for the IC50 against human TLR9, against human TLR8 and at human TLR7 were 570 nM, greater than 25000 nM and greater than 50000 nM, respectively.

Turning to `COc1ccc(-c2nc3c(C)cc(-c4ccc(N5CCC6(CC5)CN(CC(C)C)C6)cc4)nc3n2C)cc1OC` [Example 60, 2-(3,4-dimethoxyphenyl)-5-(4-(2-isobutyl-2,7-diazaspiro[3.5]nonan-7-yl)phenyl)-3,7-dimethyl-3H-imidazo[4,5-b]pyridine], the IC50 was 1100 nM on human TLR9, 3600 nM against human TLR8 and 2500 nM at human TLR7.

As to `Cc1cc(C2CCN(C3CC4CCC(C3)N4C3CCC3)CC2)nc2c1nc(-c1ccc(S(C)(=O)=O)cc1)n2C` (stereo not drawn) [Example 32, 5-(1-(8-cyclobutyl-8-azabicyclo[3.2.1]octan-3-yl)piperidin-4-yl)-3,7-dimethyl-2-(4-(methylsulfonyl)phenyl)-3H-imidazo[4,5-b]pyridine], the IC50 was 42 nM against human TLR9, greater than 50000 nM at human TLR8 and 1600 nM against human TLR7.

Consider `Cc1cc(-c2ccc(CN3CC4(C3)CN(C(C)C)C4)cc2)nc2c1nc(-c1ccc(S(C)(=O)=O)cc1)n2C1CC1` [Example 3, 3-cyclopropyl-5-(4-((6-isopropyl-2,6-diazaspiro[3.3]heptan-2-yl)methyl)phenyl)-7-methyl-2-(4-(methylsulfonyl)phenyl)-3H-imidazo[4,5-b]pyridine], for which the IC50 was 190 nM against human TLR9, greater than 50000 nM at human TLR8 and 710 nM at human TLR7.

Regarding `Cc1cc(C2CCN(C3CCN(CC4CC4)CC3)CC2)nc2c1nc(-c1ccc(S(C)(=O)=O)cc1)n2C` [Example 23, 5-(1′-(cyclopropylmethyl)-[1,4′-bipiperidin]-4-yl)-3,7-dimethyl-2-(4-(methylsulfonyl)phenyl)-3H-imidazo[4,5-b]pyridine], the IC50 at human TLR9 was 61 nM; against human TLR8 it was greater than 50000 nM; against human TLR7 it was 1900 nM.

As usually defined, the IC50 is the concentration that gives 50% inhibition.
